From ChEMBL document CHEMBL1140617, “Quantitative structure-activity relationship of sesquiterpene lactones with cytotoxic activity” (2007)
≈ marks a conversion by molar mass, not a printed value.

Tested on: KB
Experiment: Cytotoxicity against human KB cells
Type: functional
Details: for EC50: Homo sapiens, KB, read-out: ED50 (the source's name)

Structure (SMILES)	pED50	EC50 [µg/mL]	ED100 [µg/mL]	ED50 [µg/mL]
C=C1C(=O)O[C@@H]2[C@H]1[C@@H](O)C[C@H](C)[C@@H]1CCC(=O)[C@@]21C [DESACETYLCONFERTIFLORIN]	5.06	2.3 (≈ 8.7 µM)		
C=C1C(=O)O[C@H]2C[C@@H](C)[C@@H]3C=CC(=O)[C@@]3(C)[C@H](O)[C@H]12 (single isomer, unassigned) [MEXICANIN I]	5.9	0.33 (≈ 1.26 µM)		
C=C1C(=O)O[C@@H]2/C=C3\CCC4OC4(C[C@H](OC(=O)C(C)C)[C@@H]12)C(O)OC3 (some centres undefined) [VERNOMYGDIN]	5.39	1.5 (≈ 4.12 µM)		
C=C1C(=O)O[C@H]2[C@H]1[C@H](OC(=O)/C(C)=C/C)C[C@]1(CO1)[C@@H]1[C@H](O)C=C(C)[C@]21O [EUPAROTIN]	6.25		0.21	
C=C1C(=O)O[C@H]2C[C@@H](C)[C@@H]3C=CC(=O)[C@@]3(C)C[C@H]12 (single isomer, unassigned) [AROMATICIN]	5.86	0.34 (≈ 1.38 µM)		
C=C1C(=O)O[C@@H]2/C=C(\C)C[C@H](O)C=C(C)CC[C@@H]12 [TAMAULIPIN A]	5.29	1.26 (≈ 5.07 µM)		
C=C1C(=O)O[C@@H]2[C@H]1CC[C@H](C)[C@@H]1C=CC(=O)[C@@]21C [AMBROSIN]	5.74	0.45 (≈ 1.83 µM)		
C=C[C@@]12COC(=O)C(=C)[C@@H]1[C@H]1OC(=O)C(=C)[C@@H]1[C@@H](OC(=O)C(=C)CO)C2 [VERNODALIN]	5.3	1.8 (≈ 4.99 µM)		
C=C1C(=O)O[C@H]2[C@H]1[C@H](OC(=O)/C(C)=C\C)C[C@@]1(CO1)[C@@H]1[C@H](O)[C@H]3O[C@@]3(C)[C@]21O	5.18	2.6 (≈ 6.63 µM)		
C=C1C(=O)O[C@H]2[C@H]1[C@@H](OC(=O)C=C(C)C)CC1=C[C@@H](C[C@@]3(C)O[C@H]23)OC1=O [ELEPHANTIN]	5.49	1.16 (≈ 3.1 µM)		
C=C1C(=O)O[C@@H]2/C=C(/CO)[C@@H](OC(C)=O)C[C@H](O)/C(C)=C\[C@@H](OC(=O)C(C)=CC)[C@@H]12 [EUPACUNOLIN]	5.06	3.7 (≈ 8.8 µM)		
C=C1C(=O)O[C@H]2C/C(C)=C/C[C@@H](OC(C)=O)/C(C)=C/[C@@H](OC(C)=O)[C@H]12 [CHAMISSONIN DIACETATE]	5.68	2.13		
C=C[C@@]12COC(=O)C(=C)[C@@H]1[C@@H](O)[C@@H]1C(=C)C(=O)O[C@H]1C2 [VERNOMENIN]	3.9	35 (≈ 127 µM)		
C=C(C)C(=O)O[C@H]1CC2=C[C@@H](C[C@@]3(C)O[C@@H]3[C@H]3OC(=O)C(=C)[C@@H]31)OC2=O [ELEPHANTOPIN]	5.6	0.94 (≈ 2.61 µM)		
C=C[C@@]12COC(=O)C(=C)[C@@H]1[C@H]1OC(=O)C(=C)[C@@H]1[C@@H](O)C2 [VERNOLEPIN]	5.19	1.8 (≈ 6.51 µM)		
C=C1C(=O)O[C@H]2[C@H]1[C@H](OC(=O)/C(C)=C\C)CC(=C)[C@@H]1[C@H](O)[C@H]3O[C@@]3(C)[C@@]12O (stereo in doubt; 20) [EUPATUNDIN]	6.46			0.47 (≈ 1.25 µM)
C=C1C(=O)O[C@@H]2[C@H]1CC[C@H](C)[C@@H]1C[C@@H](O)C(=O)[C@@]21C	5	2.65 (≈ 10 µM)		
C=C1C(=O)O[C@H]2[C@H]1[C@H](OC(=O)/C(C)=C\C)C[C@]1(CO1)[C@@H]1[C@H](O)[C@H]3O[C@@]3(C)[C@]21O [EUPATOROXIN]	5.15	2.8 (≈ 7.14 µM)		
C=C1C(=O)O[C@H]2[C@H]1[C@H](OC(=O)/C(C)=C\C)C[C@]1(CO1)[C@@H]1[C@H](OC(C)=O)C=C(C)[C@]21O [EUPAROTIN ACETATE]	6.28	0.22		

Structure (SMILES)	pED50	EC50 [µg/mL]	ED100 [µg/mL]	ED50 [µg/mL]
C=C1C(=O)O[C@@H]2/C=C(/C)[C@@]3(O)C=C[C@@](C)(C[C@@H](OC(=O)/C(=C\C)COC(C)=O)[C@@H]12)O3 [LIATRIN]	5.41	1.62 (≈ 3.87 µM)		
C=C1C(=O)O[C@@H]2/C=C(\C)[C@H](O)CC=C(C)CC[C@@H]12 [TAMAULIPIN B]	4.98	2.6 (≈ 10.5 µM)		
C=C1C(=O)O[C@H]2[C@H]1[C@H](OC(=O)/C(C)=C\C)C[C@](O)(CCl)[C@@H]1[C@H](O)[C@H]3O[C@@]3(C)[C@]21O (single isomer, unassigned) [EUPACHLOROXIN]	5.08	3.6 (≈ 8.39 µM)		
C=C1C(=O)O[C@@H]2[C@H]1CC[C@H](C)[C@]1(O)C=CC(=O)[C@@]21C [PARTHENIN]	5.89	0.34 (≈ 1.3 µM)		
C=C1C(=O)O[C@H]2[C@H]1[C@H](OC(=O)/C(C)=C\C)C[C@](O)(CCl)[C@@H]1[C@H](OC(C)=O)C=C(C)[C@]21O [EUPACHLORIN ACETATE]	5.21	0.16		
C=C1C(=O)O[C@H]2C=C(C)[C@H]3[C@@H](OC(C)=O)C[C@@](C)(O)[C@@H]3C[C@H]12 [GAILLARDIN]	5.12	2.3 (≈ 7.51 µM)		
C=C[C@@]12COC(=O)C(=C)[C@@H]1[C@H]1OC(=O)C(=C)[C@@H]1[C@@H](OC(=O)C(=C)C)C2 (single isomer, unassigned) [VERNOLEPIN METHACRYLATE]	5.91	0.42 (≈ 1.22 µM)		
C=C1C(=O)O[C@@H]2[C@H]1CC[C@H](C)[C@]1(O)CCC(=O)[C@@]21C [CORONOPILIN]	5.26	1.45 (≈ 5.49 µM)		
C=C1C(=O)O[C@H]2CC3=C[C@@H](C[C@]4(C)O[C@@H]4[C@@H](O)[C@H]12)OC3=O [ELEPHANTOL]	3.91	36 (≈ 123 µM)		
C=C1C(=O)O[C@@H]2/C=C(\C)[C@@H](OC(C)=O)CC=C(C)C(OC(=O)[C@]3(C)O[C@@H]3C)C(O)[C@@H]12 (some centres undefined) [EUPATOCUNOXIN]	5.39	1.7 (≈ 4.04 µM)		
C=C1C(=O)O[C@@H]2/C=C(/C)[C@@H](OC(C)=O)CC(O)/C(C)=C\[C@@H](OC(=O)C3(C)O[C@@H]3C)[C@@H]12 (single isomer, unassigned) [EUPACUNOXIN]	5.3	2.1 (≈ 4.99 µM)		
C=C[C@@]12COC(=O)C(=C)[C@@H]1[C@H]1OC(=O)C(=C)[C@@H]1[C@@H](OC(C)=O)C2 [VERNOLEPIN ACETATE]	5.07	2.7		
C=C1C(=O)O[C@H]2[C@H]1[C@H](OC(=O)/C(C)=C\C)CC(=C)[C@@H]1[C@H](O)[C@H]3O[C@@]3(C)[C@@]12O (stereo in doubt; 28) [EUPATUNDIN]	5.98	0.47 (≈ 1.25 µM)		
C=C1C(=O)O[C@H]2[C@H]1[C@H](OC(=O)/C(C)=C\C)C[C@](O)(CCl)[C@@H]1[C@H](O)C=C(C)[C@]21O [EUPACHLORIN]	6.29	0.21 (≈ 0.509 µM)		
C=C1C(=O)O[C@@H]2/C=C(\C)[C@@H](OC(C)=O)C/C=C(/C)C(O)[C@@H](OC(=O)/C(C)=C\C)[C@@H]12 (some centres undefined) [EUPATOCUNIN]	6.57	0.11 (≈ 0.272 µM)		
C=C[C@]12COC(=O)C(=C)[C@H]1[C@H](OC(C)=O)[C@H]1C(=C)C(=O)O[C@@H]1C2 [VERNOMENIN ACETATE]	4.58	8		
C=C1C(=O)O[C@@H]2C[C@@H](C)[C@@H]3C=CC(=O)[C@@]3(C)[C@@H](O)[C@H]12 (stereo in doubt) [HELENALIN]	6.12	0.2 (≈ 0.762 µM)		
C=C1C(=O)O[C@@H]2/C=C(\C)CCC=C(C)CC[C@@H]12 [COSTUNOLIDE]	5.61	0.57 (≈ 2.45 µM)		
